Molecular target: NEK7 (Homo sapiens (Human), UniProt Q8TDX7+Q96SW2)
Experiment: NEK7 NanoBiT degradation assay in Cal51 NEK7 NanoBiT cell line
Type: cell-based
Conditions: CAL-51; Cal51 NEK7 NanoBiT cells, 24 hours; read-out: NEK7 NanoBiT Dmax
Outline: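 Cal51 cells with CRISPR knock-in HiBiT-tagged endogenous NEK7 plus stable LgBiT, in live-cell Endurazine medium, seeded 16 h before dosing. Compounds at final 1 μM to 0.05 nM for 24 h at 37 °C, then luminescence read. Response normalized to plate controls and fitted with a 4-parameter logistic giving EC50.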

Sequence of NEK7 (Q8TDX7 whole entry): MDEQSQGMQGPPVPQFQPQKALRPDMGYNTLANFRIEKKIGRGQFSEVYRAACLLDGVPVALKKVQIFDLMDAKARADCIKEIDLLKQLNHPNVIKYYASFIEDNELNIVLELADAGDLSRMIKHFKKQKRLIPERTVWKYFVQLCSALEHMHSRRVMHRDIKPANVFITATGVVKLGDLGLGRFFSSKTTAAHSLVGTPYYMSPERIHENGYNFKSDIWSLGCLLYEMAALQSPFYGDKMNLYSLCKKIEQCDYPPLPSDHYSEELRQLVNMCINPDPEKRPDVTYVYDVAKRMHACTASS
Sequence of NEK7 (Q96SW2 whole entry): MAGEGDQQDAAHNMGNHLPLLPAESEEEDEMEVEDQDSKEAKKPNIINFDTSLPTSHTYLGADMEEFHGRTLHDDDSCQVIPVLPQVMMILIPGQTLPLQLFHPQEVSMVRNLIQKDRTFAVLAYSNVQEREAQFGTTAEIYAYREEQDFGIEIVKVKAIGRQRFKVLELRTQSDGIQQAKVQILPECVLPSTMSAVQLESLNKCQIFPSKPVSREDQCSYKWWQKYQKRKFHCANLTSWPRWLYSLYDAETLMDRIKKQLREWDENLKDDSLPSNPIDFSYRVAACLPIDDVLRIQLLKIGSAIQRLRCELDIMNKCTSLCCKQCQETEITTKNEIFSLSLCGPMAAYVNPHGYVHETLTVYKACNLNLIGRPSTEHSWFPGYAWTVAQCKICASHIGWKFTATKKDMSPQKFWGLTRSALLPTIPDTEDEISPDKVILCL
Sequence of NEK7 (Q16531 2-1140 partner): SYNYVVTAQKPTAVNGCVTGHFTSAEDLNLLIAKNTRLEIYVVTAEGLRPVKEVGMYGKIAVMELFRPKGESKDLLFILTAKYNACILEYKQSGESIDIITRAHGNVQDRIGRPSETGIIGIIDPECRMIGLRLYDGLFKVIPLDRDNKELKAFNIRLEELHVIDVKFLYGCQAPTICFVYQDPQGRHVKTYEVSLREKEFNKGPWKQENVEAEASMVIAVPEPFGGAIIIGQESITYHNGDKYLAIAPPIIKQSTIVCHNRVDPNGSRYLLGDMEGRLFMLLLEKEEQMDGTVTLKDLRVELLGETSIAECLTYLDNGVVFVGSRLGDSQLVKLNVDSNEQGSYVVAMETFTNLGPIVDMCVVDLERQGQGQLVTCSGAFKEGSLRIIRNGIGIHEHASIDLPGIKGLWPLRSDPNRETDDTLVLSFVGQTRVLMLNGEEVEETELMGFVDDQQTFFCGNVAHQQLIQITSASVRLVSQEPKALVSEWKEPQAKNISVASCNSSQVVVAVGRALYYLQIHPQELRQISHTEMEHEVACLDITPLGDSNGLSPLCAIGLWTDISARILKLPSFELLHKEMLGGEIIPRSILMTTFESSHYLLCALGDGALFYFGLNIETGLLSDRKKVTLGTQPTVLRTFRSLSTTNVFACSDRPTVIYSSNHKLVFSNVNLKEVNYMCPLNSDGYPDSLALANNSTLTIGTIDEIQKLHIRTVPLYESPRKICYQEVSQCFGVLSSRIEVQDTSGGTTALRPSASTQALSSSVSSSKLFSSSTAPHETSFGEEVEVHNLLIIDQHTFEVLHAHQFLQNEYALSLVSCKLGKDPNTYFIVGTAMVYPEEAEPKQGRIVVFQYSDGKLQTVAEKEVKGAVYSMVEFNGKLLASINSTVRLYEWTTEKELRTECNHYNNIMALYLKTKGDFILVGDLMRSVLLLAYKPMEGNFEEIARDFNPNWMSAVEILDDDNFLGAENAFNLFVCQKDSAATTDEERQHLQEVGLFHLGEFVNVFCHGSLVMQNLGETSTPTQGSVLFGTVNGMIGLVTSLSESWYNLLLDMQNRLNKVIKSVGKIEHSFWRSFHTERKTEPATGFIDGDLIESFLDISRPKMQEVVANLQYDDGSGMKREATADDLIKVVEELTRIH

Row | SMILES | Dmax [%]
1 | CC(C)(C(=O)NCc1cc(Cl)c(C2CCC(=O)NC2=O)c(Cl)c1)c1ccc(O)c(F)c1 (stereo not drawn) [Compound 80] | 97
2 | CC(C)(C(=O)NCc1cc(Cl)c(C2CCC(=O)NC2=O)c(Cl)c1)c1ccc2nonc2c1 (stereo not drawn) [Compound 81] | 98
3 | CC(C)(C(=O)NCc1cc(Cl)c(C2CCC(=O)NC2=O)c(Cl)c1)c1ccn2nccc2c1 (stereo not drawn) [Compound 82] | 96
4 | CC(C)(C(=O)NCc1cc(Cl)c(C2CCC(=O)NC2=O)c(Cl)c1)c1ccc(C(N)=O)cc1 (stereo not drawn) [Compound 83] | 94
5 | CC(C)(C(=O)NCc1cc(Cl)c(C2CCC(=O)NC2=O)c(Cl)c1)c1cc[nH]c(=O)c1 (stereo not drawn) [Compound 84] | 93
6 | CC(C)(C(=O)NCc1cc(Cl)c(C2CCC(=O)NC2=O)c(Cl)c1)c1cncc(F)c1 (stereo not drawn) [Compound 85] | 81
7 | Cc1cc(C(C)(C)C(=O)NCc2cc(Cl)c(C3CCC(=O)NC3=O)c(Cl)c2)cc(C)n1 (stereo not drawn) [Compound 86] | 85
8 | CC(C)(C(=O)NCc1cc(Cl)c(C2CCC(=O)NC2=O)c(Cl)c1)c1ccc2occc2c1 (stereo not drawn) [Compound 87] | 97
9 | CC(C)(C(=O)NCc1cc(Cl)c(C2CCC(=O)NC2=O)c(Cl)c1)c1ccncc1F (stereo not drawn) [Compound 88] | 93

Same assay, conditions: CAL-51; NEK7 degradation, Cal51 NEK7 NanoBiT cells, 24 hours; read-out: NanoBiT Dmax

Row | SMILES | Dmax [%]
10 | CC(C)(C(=O)NCc1cc(Cl)c(C2CCC(=O)NC2=O)c(Cl)c1)c1ccc(O)c(F)c1 (stereo not drawn) [Compound 80] | > 75
11 | CC(C)(C(=O)NCc1cc(Cl)c(C2CCC(=O)NC2=O)c(Cl)c1)c1ccc2nonc2c1 (stereo not drawn) [Compound 81] | > 75
12 | CC(C)(C(=O)NCc1cc(Cl)c(C2CCC(=O)NC2=O)c(Cl)c1)c1ccn2nccc2c1 (stereo not drawn) [Compound 82] | > 75
13 | CC(C)(C(=O)NCc1cc(Cl)c(C2CCC(=O)NC2=O)c(Cl)c1)c1ccc(C(N)=O)cc1 (stereo not drawn) [Compound 83] | > 75
14 | CC(C)(C(=O)NCc1cc(Cl)c(C2CCC(=O)NC2=O)c(Cl)c1)c1cc[nH]c(=O)c1 (stereo not drawn) [Compound 84] | > 75
15 | CC(C)(C(=O)NCc1cc(Cl)c(C2CCC(=O)NC2=O)c(Cl)c1)c1cncc(F)c1 (stereo not drawn) [Compound 85] | > 75
16 | Cc1cc(C(C)(C)C(=O)NCc2cc(Cl)c(C3CCC(=O)NC3=O)c(Cl)c2)cc(C)n1 (stereo not drawn) [Compound 86] | > 75
17 | CC(C)(C(=O)NCc1cc(Cl)c(C2CCC(=O)NC2=O)c(Cl)c1)c1ccc2occc2c1 (stereo not drawn) [Compound 87] | > 75
18 | CC(C)(C(=O)NCc1cc(Cl)c(C2CCC(=O)NC2=O)c(Cl)c1)c1ccncc1F (stereo not drawn) [Compound 88] | > 75

Same assay, conditions: Cal51 NEK7 NanoBiT cells, 24 hours; read-out: NEK7 NanoBiT DC50

Row | SMILES | DC50 [nM]
19 | CC(C)(C(=O)NCc1cc(Cl)c(C2CCC(=O)NC2=O)c(Cl)c1)c1ccc(O)c(F)c1 (stereo not drawn) [Compound 80] | 1
20 | CC(C)(C(=O)NCc1cc(Cl)c(C2CCC(=O)NC2=O)c(Cl)c1)c1ccc2nonc2c1 (stereo not drawn) [Compound 81] | 0.4
21 | CC(C)(C(=O)NCc1cc(Cl)c(C2CCC(=O)NC2=O)c(Cl)c1)c1ccn2nccc2c1 (stereo not drawn) [Compound 82] | 1
22 | CC(C)(C(=O)NCc1cc(Cl)c(C2CCC(=O)NC2=O)c(Cl)c1)c1ccc(C(N)=O)cc1 (stereo not drawn) [Compound 83] | 7
23 | CC(C)(C(=O)NCc1cc(Cl)c(C2CCC(=O)NC2=O)c(Cl)c1)c1cc[nH]c(=O)c1 (stereo not drawn) [Compound 84] | 22
24 | CC(C)(C(=O)NCc1cc(Cl)c(C2CCC(=O)NC2=O)c(Cl)c1)c1cncc(F)c1 (stereo not drawn) [Compound 85] | 11
25 | Cc1cc(C(C)(C)C(=O)NCc2cc(Cl)c(C3CCC(=O)NC3=O)c(Cl)c2)cc(C)n1 (stereo not drawn) [Compound 86] | 21
26 | CC(C)(C(=O)NCc1cc(Cl)c(C2CCC(=O)NC2=O)c(Cl)c1)c1ccc2occc2c1 (stereo not drawn) [Compound 87] | 0.1
27 | CC(C)(C(=O)NCc1cc(Cl)c(C2CCC(=O)NC2=O)c(Cl)c1)c1ccncc1F (stereo not drawn) [Compound 88] | 4

Same assay, conditions: NEK7 degradation, Cal51 NEK7 NanoBiT cells, 24 hours; read-out: NanoBiT DC50

Row | SMILES | DC50 [nM]
28 | CC(C)(C(=O)NCc1cc(Cl)c(C2CCC(=O)NC2=O)c(Cl)c1)c1ccc(O)c(F)c1 (stereo not drawn) [Compound 80] | ≤ 100
29 | CC(C)(C(=O)NCc1cc(Cl)c(C2CCC(=O)NC2=O)c(Cl)c1)c1ccc2nonc2c1 (stereo not drawn) [Compound 81] | ≤ 100
30 | CC(C)(C(=O)NCc1cc(Cl)c(C2CCC(=O)NC2=O)c(Cl)c1)c1ccn2nccc2c1 (stereo not drawn) [Compound 82] | ≤ 100
31 | CC(C)(C(=O)NCc1cc(Cl)c(C2CCC(=O)NC2=O)c(Cl)c1)c1ccc(C(N)=O)cc1 (stereo not drawn) [Compound 83] | ≤ 100
32 | CC(C)(C(=O)NCc1cc(Cl)c(C2CCC(=O)NC2=O)c(Cl)c1)c1cc[nH]c(=O)c1 (stereo not drawn) [Compound 84] | ≤ 100
33 | CC(C)(C(=O)NCc1cc(Cl)c(C2CCC(=O)NC2=O)c(Cl)c1)c1cncc(F)c1 (stereo not drawn) [Compound 85] | ≤ 100
34 | Cc1cc(C(C)(C)C(=O)NCc2cc(Cl)c(C3CCC(=O)NC3=O)c(Cl)c2)cc(C)n1 (stereo not drawn) [Compound 86] | ≤ 100
35 | CC(C)(C(=O)NCc1cc(Cl)c(C2CCC(=O)NC2=O)c(Cl)c1)c1ccc2occc2c1 (stereo not drawn) [Compound 87] | ≤ 100
36 | CC(C)(C(=O)NCc1cc(Cl)c(C2CCC(=O)NC2=O)c(Cl)c1)c1ccncc1F (stereo not drawn) [Compound 88] | ≤ 100

Molecular target: CRBN-DDB1 (Homo sapiens (Human), UniProt Q96SW2)
Sequence (Q96SW2 whole entry): as the sequence (Q96SW2 whole entry) above
Sequence (Q16531 whole entry partner): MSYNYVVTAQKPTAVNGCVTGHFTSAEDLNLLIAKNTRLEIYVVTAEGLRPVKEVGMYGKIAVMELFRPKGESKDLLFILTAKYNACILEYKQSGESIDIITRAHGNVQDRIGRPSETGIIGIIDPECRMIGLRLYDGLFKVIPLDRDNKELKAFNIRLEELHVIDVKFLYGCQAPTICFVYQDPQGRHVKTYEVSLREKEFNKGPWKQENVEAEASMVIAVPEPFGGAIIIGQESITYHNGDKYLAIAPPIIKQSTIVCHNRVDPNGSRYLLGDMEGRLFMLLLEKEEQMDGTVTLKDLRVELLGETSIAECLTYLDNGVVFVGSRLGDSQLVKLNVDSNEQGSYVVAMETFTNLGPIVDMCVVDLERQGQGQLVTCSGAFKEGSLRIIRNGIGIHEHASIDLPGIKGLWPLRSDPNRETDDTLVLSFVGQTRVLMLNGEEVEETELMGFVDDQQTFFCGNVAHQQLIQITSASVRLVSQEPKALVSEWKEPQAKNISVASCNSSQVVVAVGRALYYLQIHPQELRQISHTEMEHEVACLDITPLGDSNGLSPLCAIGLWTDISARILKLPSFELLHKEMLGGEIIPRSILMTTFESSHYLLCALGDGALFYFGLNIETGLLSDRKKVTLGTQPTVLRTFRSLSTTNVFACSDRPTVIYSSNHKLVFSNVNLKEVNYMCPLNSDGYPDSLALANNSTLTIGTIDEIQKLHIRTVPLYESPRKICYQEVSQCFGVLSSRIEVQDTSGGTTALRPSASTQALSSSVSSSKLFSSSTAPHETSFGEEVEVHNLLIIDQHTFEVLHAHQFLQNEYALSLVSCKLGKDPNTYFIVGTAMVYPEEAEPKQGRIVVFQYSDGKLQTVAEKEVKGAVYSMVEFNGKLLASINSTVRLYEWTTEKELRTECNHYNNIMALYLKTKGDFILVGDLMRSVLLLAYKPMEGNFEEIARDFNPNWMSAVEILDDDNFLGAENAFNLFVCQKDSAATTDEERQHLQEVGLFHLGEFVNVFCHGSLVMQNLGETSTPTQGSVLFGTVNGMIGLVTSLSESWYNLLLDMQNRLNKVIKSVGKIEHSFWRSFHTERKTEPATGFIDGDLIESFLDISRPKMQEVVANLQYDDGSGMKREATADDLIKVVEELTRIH
Experiment: Compound binding to CRBN by HTRF assay
Conditions: not given
Outline: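 HTRF displacement of Cy5-thalidomide probe (100 nM) from His-tagged CRBN-DDB1 (2.5 nM) with anti-His terbium cryptate, in HEPES/NaCl/TCEP/EDTA/Tween20 buffer; 11-point 1:3 dilution series, 30 min at ambient temperature. Signal (665/620 nm) normalized to lenalidomide and DMSO controls; EC50 fitted, Ki by Cheng-Prusoff from geometric mean EC50.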

Row | SMILES | EC50 [nM]
37 | CC(C)(C(=O)NCc1cc(Cl)c(C2CCC(=O)NC2=O)c(Cl)c1)c1ccc(O)c(F)c1 (stereo not drawn) [Compound 80] | 30
38 | CC(C)(C(=O)NCc1cc(Cl)c(C2CCC(=O)NC2=O)c(Cl)c1)c1ccc2nonc2c1 (stereo not drawn) [Compound 81] | 70
39 | CC(C)(C(=O)NCc1cc(Cl)c(C2CCC(=O)NC2=O)c(Cl)c1)c1ccn2nccc2c1 (stereo not drawn) [Compound 82] | 90
40 | CC(C)(C(=O)NCc1cc(Cl)c(C2CCC(=O)NC2=O)c(Cl)c1)c1ccc(C(N)=O)cc1 (stereo not drawn) [Compound 83] | 140
41 | CC(C)(C(=O)NCc1cc(Cl)c(C2CCC(=O)NC2=O)c(Cl)c1)c1cc[nH]c(=O)c1 (stereo not drawn) [Compound 84] | 180
42 | CC(C)(C(=O)NCc1cc(Cl)c(C2CCC(=O)NC2=O)c(Cl)c1)c1cncc(F)c1 (stereo not drawn) [Compound 85] | 40
43 | Cc1cc(C(C)(C)C(=O)NCc2cc(Cl)c(C3CCC(=O)NC3=O)c(Cl)c2)cc(C)n1 (stereo not drawn) [Compound 86] | 160
44 | CC(C)(C(=O)NCc1cc(Cl)c(C2CCC(=O)NC2=O)c(Cl)c1)c1ccc2occc2c1 (stereo not drawn) [Compound 87] | 30
45 | CC(C)(C(=O)NCc1cc(Cl)c(C2CCC(=O)NC2=O)c(Cl)c1)c1ccncc1F (stereo not drawn) [Compound 88] | 110

Same assay, conditions: HTRF class; Cereblon binding

Row | SMILES | EC50 [nM]
46 | CC(C)(C(=O)NCc1cc(Cl)c(C2CCC(=O)NC2=O)c(Cl)c1)c1ccc(O)c(F)c1 (stereo not drawn) [Compound 80] | ≤ 100
47 | CC(C)(C(=O)NCc1cc(Cl)c(C2CCC(=O)NC2=O)c(Cl)c1)c1ccc2nonc2c1 (stereo not drawn) [Compound 81] | ≤ 100
48 | CC(C)(C(=O)NCc1cc(Cl)c(C2CCC(=O)NC2=O)c(Cl)c1)c1ccn2nccc2c1 (stereo not drawn) [Compound 82] | ≤ 100
49 | CC(C)(C(=O)NCc1cc(Cl)c(C2CCC(=O)NC2=O)c(Cl)c1)c1ccc(C(N)=O)cc1 (stereo not drawn) [Compound 83] | 100 to 1000
50 | CC(C)(C(=O)NCc1cc(Cl)c(C2CCC(=O)NC2=O)c(Cl)c1)c1cc[nH]c(=O)c1 (stereo not drawn) [Compound 84] | 100 to 1000
51 | CC(C)(C(=O)NCc1cc(Cl)c(C2CCC(=O)NC2=O)c(Cl)c1)c1cncc(F)c1 (stereo not drawn) [Compound 85] | ≤ 100
52 | Cc1cc(C(C)(C)C(=O)NCc2cc(Cl)c(C3CCC(=O)NC3=O)c(Cl)c2)cc(C)n1 (stereo not drawn) [Compound 86] | 100 to 1000
53 | CC(C)(C(=O)NCc1cc(Cl)c(C2CCC(=O)NC2=O)c(Cl)c1)c1ccc2occc2c1 (stereo not drawn) [Compound 87] | ≤ 100
54 | CC(C)(C(=O)NCc1cc(Cl)c(C2CCC(=O)NC2=O)c(Cl)c1)c1ccncc1F (stereo not drawn) [Compound 88] | 100 to 1000
